Assay: Lipid chemical stability in PBS or histidine buffer solution (LC-MS)
Type: physicochemical
Details: for primary degradation pathway: LC-MS; for stability in BT5933 glass vials relative to COP vials: diluted with PBS buffer
Experimental: Stock MC3 lipidic solutions were prepared by dissolving MC3 in an ethanolic solution to a final concentration of 4 mg/mL (e.g., 6 mM). Similarly, stock lipidic DOTAP solutions were prepared by dissolving DOTAP in an ethanolic solution to a final concentration of 4 mg/mL. Stock solutions of phosphate buffered saline (1×, pH 7.4) were used. Final lipidic solutions were prepared by mixing PBS stock to the lipidic stock in a ratio of 3:1 (e.g., PBS stock:DOTAP stock in ethanol=3:1; PBS stock:MC3 stock in ethanol=3:1). Solutions were stored in either glass (BT5933) or polymer (COP) vials.
Dilute lipidic solutions were frozen at −70° C. before being thawed and stored at either 5° C., 25° C., or 40° C. for either 1 week, 2 weeks, or 4 weeks. At each timepoint, (e.g., after 1 week, 2 weeks, or 4 weeks) the lipid solution was analyzed via LC-MS to determine the extent of hydrolysis and/or oxidation present.
MC3 and DOTAP lipids were prepared using either PBS or Histidine buffers. Ethanolic stock solutions of MC3 and DOTAP were prepared as described in Example 1. PBS-based solutions were prepared by diluting the stock lipid solutions, respectively, by 3:1 (PBS:lipid in ethanol (vol/vol)) using 1× PBS, pH 7.4. Histidine-based solutions were also prepared by diluting the stock lipidic solution by 3:1 (histidine:lipid in ethanol vol/vol) using a histidine buffer (10 mM, pH 6.0). Solutions were filled into BT5933, COP, or Valor glass vials at 1 mL aliquots and put on stability. Initial control samples were immediately frozen at −70° C.
Filled vials were stored at either 5° C., 25° C., or 40° C. for either 1 week, 2 weeks, or 4 weeks. At each timepoint, (e.g., after 1 week, 2 weeks, or 4 weeks) the lipid solution was analyzed via LC-MS to determine the extent of hydrolysis and/or oxidation present.

[1] = diluted in 1X PBS pH 7.4, 5, 25, 40° C., 1, 2, 4 weeks
[2] = histidine buffer (10 mM, pH 6.0) vs PBS, 5, 25, 40° C., 1-4 weeks

With `CCCCC/C=C\C/C=C\CCCCCCCCC(CCCCCCCC/C=C\C/C=C\CCCCC)OC(=O)CCCN(C)C` [MC3, 4-(dimethylamino)-butanoic acid, (10Z,13Z)-1-(9Z,12Z)-9,12-octadecadien-1-yl-10,13-nonadecadien-1-yl ester] the “% lipid intact” value [1] was “lower than the % DOTAP for the same time points”, the primary degradation pathway (diluted in 1X PBS pH 7.4) was “oxidation” and the “stability in BT5933 glass vials relative to COP vials” value was “improved stability relative to COP vials”. The “% hydrolysis” value [2] was “significantly reduced lipid hydrolysis of MC3”, the “% lipid intact” value [2] was “increasing the % MC3 intact at all storage conditions tested” and the degree of oxidation [2] was “reduced the degree of oxidation”. The oxidation rate (storage in Valor glass vials vs other vials) was “lower oxidation rate”.
For `CCCCCCCC/C=C\CCCCCCCC(=O)OCC(C[N+](C)(C)C)OC(=O)CCCCCCC/C=C\CCCCCCCC` (stereo not drawn) [DOTAP, 1,2-dioleoyl-3-trimethylammonium-propane], the “% lipid intact” value [1] was “decreased with increasing storage time”, the primary degradation pathway (diluted in 1X PBS pH 7.4) was “hydrolysis” and the “stability in BT5933 glass vials relative to COP vials” value was “better stability”. For the same compound, the “% hydrolysis” value [2] was “decreased the % hydrolysis of DOTAP relative to storage in PBS” and the “% lipid intact” value [2] was “stabilized the % DOTAP intact at all storage conditions tested”.

Source: patent US20260207504A1, “STABILIZATION OF LIPID NANOPARTICLE FORMULATIONS” (Eli Lilly and Company, priority 2022, published 2026)
